Reference: patent US20250090699A1, “FAP TARGETING CYCLIC PEPTIDES AND CONJUGATES THEREOF” (Novartis AG, priority 2023, published 2025)
pIC50, pKd: −log10 of the molar value. Counter-ions that a name gives are not always drawn. Starred links: 1 amine or outer side, 2 acyl side, 3 side chain; linkers in the order of their positions; H or OH if unused. Non-standard residues stand in square brackets, D forms with d. Residues, ends and D or L forms follow the SMILES beside them. *: point of attachment. Pyrrolidine(2S-CN,4,4-F2) = N#C[C@@H]1CC(F)(F)CN1*; X7 = CCCCC[C@@H](O)[C@H](N[*:1])C(=O)[*:2]; NMeAla(cPent) = CN[C@@H](CC1CCCC1)C(=O)O; AEF = NCCOc1ccc(C[C@H](N)C(=O)O)cc1; NMeCha = CN[C@@H](CC1CCCCC1)C(=O)O; Hyp = O=C(O)[C@@H]1C[C@@H](O)CN1; NMeF = CN[C@@H](Cc1ccccc1)C(=O)O; dHyp = O=C(O)[C@H]1C[C@H](O)CN1; Aoc(2) = CCCCCC[C@H](N)C(=O)O; Ahp(2) = CCCCC[C@H](N)C(=O)O; hSer = N[C@@H](CCO)C(=O)O; X3 = FC1(F)CCN(*)C1

Columns and labels:
[1] = molecular target: T1, mouse FAP (Mus musculus, UniProt P97321); assay: Enzymatic FAP competition assay (Z-Gly-Pro-AMC fluorescence), mouse FAP; assay type: biochemical; conditions: read-out: m. FAP, Enz., IC50
T1 construct: biotinylated His, Avi tag, mouse FAP (26-761, FAP-M82Q5); His; Avi tag (biotinylated); purchased AcroBiosystems FAP-M82Q5
T1 sequence (P97321 26-761): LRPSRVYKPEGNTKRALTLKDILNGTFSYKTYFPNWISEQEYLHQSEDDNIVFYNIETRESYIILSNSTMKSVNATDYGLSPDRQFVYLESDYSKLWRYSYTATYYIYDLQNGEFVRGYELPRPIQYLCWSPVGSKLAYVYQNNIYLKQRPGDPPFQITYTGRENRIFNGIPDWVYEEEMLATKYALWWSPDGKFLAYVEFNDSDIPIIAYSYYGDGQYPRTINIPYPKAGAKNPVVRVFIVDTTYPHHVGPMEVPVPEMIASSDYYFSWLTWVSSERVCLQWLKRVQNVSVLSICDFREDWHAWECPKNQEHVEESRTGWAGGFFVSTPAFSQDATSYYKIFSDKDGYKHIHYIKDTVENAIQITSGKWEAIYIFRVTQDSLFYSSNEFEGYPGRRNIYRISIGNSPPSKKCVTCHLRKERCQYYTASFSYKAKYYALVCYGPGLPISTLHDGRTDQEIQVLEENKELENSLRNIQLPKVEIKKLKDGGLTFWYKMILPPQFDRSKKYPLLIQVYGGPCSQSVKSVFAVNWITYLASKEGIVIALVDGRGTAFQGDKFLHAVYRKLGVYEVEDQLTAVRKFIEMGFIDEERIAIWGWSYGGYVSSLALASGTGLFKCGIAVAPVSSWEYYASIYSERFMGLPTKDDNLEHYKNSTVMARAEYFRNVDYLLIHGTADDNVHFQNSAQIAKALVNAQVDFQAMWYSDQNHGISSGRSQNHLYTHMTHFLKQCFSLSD
Description: (§1) Peptide potencies (IC50) to inhibit the FAP enzymatic activity were determined using a fluorescence-based assay towards the biotinylated His, Avi tag, human FAP (26-760, FAP-H82Q6) and the biotinylated His, Avi tag, mouse FAP (26-761, FAP-M82Q5). Standard assay conditions consisted of 20 μL total volume in white 384-well plates (Greiner, Ref. 784075), in 50 mM phosphate buffer pH 7.5 containing 150 mM NaCl, 0.05% Tween20 and 1% final DMSO. Tested peptides at 14 different concentrations up to 1 μM were added to 0.01 nM human or mouse FAP. The peptides were incubated for 24 hours together with the protein before adding the substrate 50 μM Z-Gly-Pro-AMC (I-1145 from Bachem). Samples were then incubated at 22-24° C. for 4 h before reading the fluorescence at excitation wavelength of 380 nm and emission wavelength of 460 nm using the Tecan Infinite® M1000 PRO. The high control (100% activity) was not containing any peptide, and an internal potent peptide was added at 10 μM concentration for the low control (100% inhibition). IC50 values were calculated by curve fitting using an in-house developed software (Novartis Helios software application) using the method described by Fomenko et al., 2006 (regression algorithms for nonlinear dose-response curve fitting). Following normalization of activity values for the wells to % inhibition (% inhibition=[(high control-sample)/(high control-low control)]x 100). IC50 fitting was carried out from the duplicated points.

[2] = molecular target: T1, mouse FAP; assay: Surface plasmon resonance (SPR) for peptide affinity, mouse FAP; assay type: binding
Description: Peptide affinities (KD) were determined by SPR using a Biacore™ 8K device (Cytiva) towards the following proteins: biotinylated His, Avi tag, human FAP (26-760, FAP-H82Q6), biotinylated His, Avi tag, mouse FAP (26-761, FAP-M82Q5), His tag, human DPP4 (34-766, DP4-H82E3), all purchased from AcroBiosystems and His tag, mouse DPP4 (29-760, 954-SE) from R&D Systems. The FAP proteins and their homologous were diluted to a concentration of 2 μg/mL into acetate buffer pH 5.5, then immobilized onto a CM5 sensorchip (Cytiva, BR-1005-30) to reach a response around 2000 R U. The running buffer HBS-EP+pH 7.6 (20× from Teknova CAT. No: H8022) contained 10 mM HEPES pH 7.6, 150 mM NaCl, 3 mM EDTA, 0.05% Tween20 and 2% DMSO. Experiments were carried out at 25° C. using a flow rate of 30 μL/min. Compounds were tested in single cycle kinetic mode at 8 different concentrations. Curve fitting was performed using the Biacore™ 8K evaluation software. The sensorgrams were fitted by applying a 1:1 binding model to calculate kinetic rate constants and equilibrium dissociation constants (KD).
For this assay, the setup had the same conditions (flow rate, running buffer, peptide dilution) as described above for the CM5 method. The oligo CAP reagent obtained in the CAPture Kit (Ref. 28920234) was 1/5 diluted into running buffer and used with a contact time of 300 s at a flow rate of 2 μL/min. The human and mouse FAP constructs described above were used (from AcroBiosystems or produced in house). The FAP proteins were diluted to a concentration of 2 μg/mL into acetate pH 5.5, 0.05% Tween20 and used with a contact time of 600 s at a flow rate of 10 μL/min. The peptides were tested with an association time of 280 s followed by a dissociation time of 3000 s at a flow rate of 30 μL/min. The regeneration was done using the regeneration solution (8 M guanidine-HCl, 1 M NaOH) as obtained with a contact time of 270 s at a flow rate of 10 μL/min. […] The compounds marked with an asterisk were tested against human and mouse DDP4.

[3] = molecular target: T2, human FAP (Homo sapiens, UniProt Q12884); assay: Enzymatic FAP competition assay (Z-Gly-Pro-AMC fluorescence), human FAP; assay type: biochemical; conditions: read-out: h. FAP, Enz., IC50
T2 construct: the biotinylated His, Avi tag, human FAP (26-760, FAP-H82Q6); His; Avi tag (biotinylated); purchased AcroBiosystems FAP-H82Q6
T2 sequence (Q12884 26-760): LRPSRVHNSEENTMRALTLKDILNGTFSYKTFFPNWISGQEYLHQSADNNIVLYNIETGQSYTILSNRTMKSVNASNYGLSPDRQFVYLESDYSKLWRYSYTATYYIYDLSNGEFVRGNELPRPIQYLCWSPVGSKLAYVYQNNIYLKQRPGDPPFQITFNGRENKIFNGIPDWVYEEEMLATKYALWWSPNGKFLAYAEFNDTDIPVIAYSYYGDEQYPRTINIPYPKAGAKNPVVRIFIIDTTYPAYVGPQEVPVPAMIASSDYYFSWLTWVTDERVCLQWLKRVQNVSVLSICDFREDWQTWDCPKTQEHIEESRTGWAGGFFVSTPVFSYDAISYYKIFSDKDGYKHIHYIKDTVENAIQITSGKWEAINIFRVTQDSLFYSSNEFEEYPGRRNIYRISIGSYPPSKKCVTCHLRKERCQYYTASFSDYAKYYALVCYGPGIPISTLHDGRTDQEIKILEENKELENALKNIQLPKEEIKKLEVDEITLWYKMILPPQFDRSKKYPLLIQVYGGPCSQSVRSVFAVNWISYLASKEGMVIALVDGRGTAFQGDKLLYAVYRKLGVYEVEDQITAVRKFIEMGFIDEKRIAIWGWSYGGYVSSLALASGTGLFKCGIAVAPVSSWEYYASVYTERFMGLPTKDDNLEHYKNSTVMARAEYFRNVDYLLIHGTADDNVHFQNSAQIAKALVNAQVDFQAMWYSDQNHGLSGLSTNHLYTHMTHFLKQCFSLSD
Description: as §1

Compound: CN1C(=O)CNC(=O)[C@H](CCCCN)NC(=O)[C@H]2CCCN2C(=O)[C@H](CC(=O)O)NC(=O)[C@H](Cc2ccc(O)cc2)NC(=O)CNC(=O)[C@H](Cc2c[nH]c3ccccc23)NC(=O)[C@H](CCC(=O)N2CC(F)(F)C[C@H]2C#N)NC(=O)[C@H](Cc2ccc(O)cc2)NC(=O)[C@@H]1Cc1ccccc1 [Example A29, Lys-Gly-NMePhe-Tyr-Q(Pyrro(2CN4F2))-Trp-Gly-Tyr-Asp-D-Pro] (cyclo(KG[NMeF]YE(Pyrrolidine(2S-CN,4,4-F2))WGYD[dP]))
- pIC50 [1]: 10.09
- pKd [2]: 10.36
- pIC50 [3]: 10.23

Compound: CN1C(=O)CNC(=O)[C@H](CCCCN)NC(=O)[C@H]2CCCN2C(=O)[C@H](CC(=O)O)NC(=O)[C@H](Cc2ccc(O)cc2)NC(=O)CNC(=O)[C@H](Cc2c[nH]c3ccccc23)NC(=O)[C@H](CCC(=O)N2CCC(F)(F)C2)NC(=O)[C@H](Cc2ccc(O)cc2)NC(=O)[C@@H]1Cc1ccccc1 [Example A30, Lys-Gly-NMePhe-Tyr-Q(Pyrro(4F2))-Trp-Gly-Tyr-Asp-D-Pro, TFA salt] (cyclo(D[dP]KG[NMeF]YE(X3)WGY))
- pIC50 [1]: 8.60
- pKd [2]: 8.62
- pIC50 [3]: 9.10

Compound: CCCCCC[C@@H]1NC(=O)[C@H](Cc2ccc(O)cc2)NC(=O)[C@H](Cc2ccccc2)N(C)C(=O)CNC(=O)[C@H](CCCCN)NC(=O)[C@H]2CCCN2C(=O)[C@H](CC(=O)O)NC(=O)[C@H](Cc2ccc(O)cc2)NC(=O)CNC(=O)[C@H](Cc2c[nH]c3ccccc23)NC1=O [Example A31, Lys-Gly-NMePhe-Tyr-Aoc-Trp-Gly-Tyr-Asp-D-Pro, TFA salt] (cyclo([Aoc(2)]WGYD[dP]KG[NMeF]Y))
- pIC50 [1]: 9.80
- pKd [2]: 9.97
- pIC50 [3]: 10.40

Compound: CCCCC[C@@H]1NC(=O)[C@H](Cc2ccc(OCCN)cc2)NC(=O)[C@H](Cc2ccccc2)N(C)C(=O)CNC(=O)[C@@H]2C[C@@H](O)CN2C(=O)[C@H]2CCCN2C(=O)[C@H](CC(=O)O)NC(=O)[C@H](Cc2ccc(O)cc2)NC(=O)CNC(=O)[C@H](Cc2c[nH]c3ccccc23)NC1=O [Example A33, trans4Hyp-Gly-NMePhe-F(4OEtNH2)-Ahp-Trp-Gly-Tyr-Asp-D-Pro] (cyclo([AEF][Ahp(2)]WGYD[dP][Hyp]G[NMeF]))
- pIC50 [1]: 8.49
- pKd [2]: 8.96
- pIC50 [3]: 9.00

Compound: CCCCC[C@@H](O)[C@@H]1NC(=O)[C@H](Cc2ccc(O)cc2)NC(=O)[C@H](Cc2ccccc2)N(C)C(=O)CNC(=O)CNC(=O)[C@H]2CCCN2C(=O)[C@H](CC(=O)O)NC(=O)[C@H](Cc2ccc(O)cc2)NC(=O)CNC(=O)[C@H](Cc2c[nH]c3ccccc23)NC1=O [Example A34, Gly-Gly-NMePhe-Tyr-Aoc(3R-OH)-Trp-Gly-Tyr-Asp-D-Pro] (cyclo(D[dP]GG[NMeF]Y[X7]WGY))
- pIC50 [1]: 9.40
- pKd [2]: 9.60
- pIC50 [3]: 10.26

Compound: CCCCC[C@@H]1NC(=O)[C@H](Cc2ccc(O)cc2)NC(=O)[C@H](Cc2ccccc2)N(C)C(=O)CNC(=O)[C@H](CCCCN)NC(=O)[C@H]2C[C@H](O)CN2C(=O)[C@H](CC(=O)O)NC(=O)[C@H](Cc2ccc(O)cc2)NC(=O)CNC(=O)[C@H](Cc2c[nH]c3ccccc23)NC1=O [Example A41, Lys-Gly-NMePhe-Tyr-Ahp-Trp-Gly-Tyr-Asp-D-trans4hyp, TFA salt] (cyclo([Ahp(2)]WGYD[dHyp]KG[NMeF]Y))
- pIC50 [1]: 8.28
- pKd [2]: 7.92
- pIC50 [3]: 8.66

Compound: CCCCC[C@@H]1NC(=O)[C@H](Cc2ccc(O)cc2)NC(=O)[C@H](Cc2ccccc2)N(C)C(=O)CNC(=O)[C@H](CCO)NC(=O)[C@H]2CCCN2C(=O)[C@H](CC(=O)O)NC(=O)[C@H](Cc2ccc(O)cc2)NC(=O)CNC(=O)[C@H](Cc2c[nH]c3ccccc23)NC1=O [Example A42, hSer-Gly-NMePhe-Tyr-Ahp-Trp-Gly-Tyr-Asp-D-Pro] (cyclo([Ahp(2)]WGYD[dP][hSer]G[NMeF]Y))
- pIC50 [1]: 9.44
- pKd [2]: 9.70
- pIC50 [3]: 10.05

Compound: CCCCC[C@@H]1NC(=O)[C@H](Cc2ccc(O)cc2)NC(=O)[C@H](CC2CCCCC2)N(C)C(=O)CNC(=O)[C@H](CCCCN)NC(=O)[C@H]2CCCN2C(=O)[C@H](CC(=O)O)NC(=O)[C@H](Cc2ccc(O)cc2)NC(=O)CNC(=O)[C@H](Cc2c[nH]c3ccccc23)NC1=O [Example A43, Lys-Gly-NMecHexA-Tyr-Ahp-Trp-Gly-Tyr-Asp-D-Pro, TFA salt] (cyclo([Ahp(2)]WGYD[dP]KG[NMeCha]Y))
- pIC50 [1]: 9.72
- pKd [2]: 9.73
- pIC50 [3]: 10.16

Compound: CCCCC[C@@H]1NC(=O)[C@H](Cc2ccc(O)cc2)NC(=O)[C@H](CC2CCCC2)N(C)C(=O)CNC(=O)[C@H](CCCCN)NC(=O)[C@H]2CCCN2C(=O)[C@H](CC(=O)O)NC(=O)[C@H](Cc2ccc(O)cc2)NC(=O)CNC(=O)[C@H](Cc2c[nH]c3ccccc23)NC1=O [Example A44, Lys-Gly-NMecPenA-Tyr-Ahp-Trp-Gly-Tyr-Asp-D-Pro, TFA salt] (cyclo([Ahp(2)]WGYD[dP]KG[NMeAla(cPent)]Y))
- pIC50 [1]: 8.60
- pKd [2]: 8.57
- pIC50 [3]: 9.27
